The target of test [1] is T1, human β2 adrenergic receptor (Homo sapiens, UniProt P07550).
T1 construct: expressed in transfected cells; host or cells: CHO-K1
Briefly: Whole-cell cAMP Flashplate assay using CHO-K1 cells stably expressing human β2 adrenergic receptor. In kind it is cell-based. To be noted: cAMP production. Here is the method:
The β2 adrenergic receptor, which couples to Gs proteins, activates adenylate cyclase upon agonist binding to the receptor. As a result, cAMP is produced in cells. The activation ability of the β2 adrenergic receptor can be measured by measuring the amount of the cAMP with cAMP-Screen System (Applied Biosystems).
CHO-K1 cells expressing the human β2 adrenergic receptor suspended in Ham's F-12 media containing 10% FBS were seeded into 96-well plates at a volume of 100 μL/well. Next day, they were washed with 200 μL PBS(−), to which 80 μL of 0.5 mM IBMX solution (Ham's F-12 media containing 0.05% BSA) was then added, followed by incubation for 20 minutes at 37° C. in the presence of 5% carbon dioxide. 20 μL of 9 concentrations of test compound solutions (0.5 mM IBMX solution containing 1% DMSO) prepared at concentrations in a range of 0.01-1000 nM with 2-fold serial dilution) were added, followed by incubation for 20 minutes at 37° C. in the presence of 5% carbon dioxide. Then, 100 μL of Assay/Lysis Buffer (a reagent that comes with cAMP Screen System) was added. The cells were lysed by pipetting, further incubated for 30 minutes at 37° C., and then frozen at −80° C. After several days, samples, thawed at room temperature, were treated according to the protocol of cAMP Screen System, and then chemiluminescence was measured by EnVision (PerkinElmer, Inc.). The amount of cAMP was calculated from the standard curve for the standard attached to cAMP Screen System.
The concentrations of a test compound at which 50% of its maximal effect is reached (EC50 values) were analyzed by a four-parameter logistic model using XLfit4 (IDBS, Ltd.) for the amounts of cAMP production at different concentrations of the test compounds.
On the technique in general: Changes in cAMP serve as a functional read-out for many G protein-coupled receptors.

The target in test [2] is T2, human M3 muscarinic receptor (Homo sapiens, UniProt P20309).
T2 construct: expressed in transfected cells; host or cells: CHO-K1
T2 sequence (P20309 whole entry): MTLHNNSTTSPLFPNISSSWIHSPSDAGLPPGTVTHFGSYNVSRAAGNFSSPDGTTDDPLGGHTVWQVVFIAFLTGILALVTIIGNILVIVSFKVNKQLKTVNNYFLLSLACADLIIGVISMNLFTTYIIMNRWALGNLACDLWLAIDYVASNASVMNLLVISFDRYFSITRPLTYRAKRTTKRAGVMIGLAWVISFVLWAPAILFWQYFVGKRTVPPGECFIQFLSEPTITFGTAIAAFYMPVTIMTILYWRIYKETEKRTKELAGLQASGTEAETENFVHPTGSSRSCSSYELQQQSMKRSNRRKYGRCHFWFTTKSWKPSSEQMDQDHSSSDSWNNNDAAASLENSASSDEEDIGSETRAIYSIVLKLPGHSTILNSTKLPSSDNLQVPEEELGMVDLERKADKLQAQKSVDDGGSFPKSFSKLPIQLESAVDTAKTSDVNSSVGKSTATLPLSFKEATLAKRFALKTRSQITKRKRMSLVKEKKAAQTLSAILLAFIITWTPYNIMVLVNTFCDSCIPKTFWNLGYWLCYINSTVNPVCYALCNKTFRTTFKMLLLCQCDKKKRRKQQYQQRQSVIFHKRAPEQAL
In words: Inhibitory effect on methacholine-induced calcium influx, FLIPR assay, CHO-K1 cells stably expressing the human M3 muscarinic receptor. In kind it is cell-based. To be noted: inhibition of calcium influx induced by methacholine. From the text:
Muscarinic receptor subtypes (M1, M3 and M5 receptors), which couple to Gq proteins, activate the phospholipase C (PLC) pathway upon agonist binding to the receptor. As a result, the activated PLC hydrolyzes phosphatidyl inositol diphosphate (PIP2) to diacyl glycerol (DAG) and […] (IP3), which in turn generates calcium release from intracellular stores, i.e., endoplasmic and sarcoplasmic reticula. By utilizing FLIPR (Molecular Devices, Inc.) assay in which a calcium sensitive dye (Component A) is used that fluoresces when free calcium binds, the increase in intracellular calcium is measured on the basis of the change in the fluorescence intensity.
Methacholine was added to CHO-K1 cells stably expressing the human M3 muscarinic receptor to induce calcium influx and evaluate the inhibitory effect of test compounds. In the experiment, a FLIPR Calcium assay kit (Molecular Devices, Inc.) was used.
CHO-K1 cells stably expressing the human M3 muscarinic receptor suspended in Ham's F-12 media (Invitrogen, Co.) containing 10% fetal bovine serum (FBS) were seeded into 96-well FLIPR plates at a volume of 100 μL/well. Next day, 60 μL/well of Non-wash-dye solution (Hank's buffered salt solution, HBSS, containing 20 mM HEPES and 6.5 mM probenecid) was added to the cells, which were then incubated for an hour at 37° C. in the presence of 5% carbon dioxide. 20 μL of 10 concentrations of test compound solutions (HBSS containing 1% DMSO, 20 mM HEPES, 2.5 mM probenecid and 0.05% bovine serum albumin, BSA) prepared at concentrations in a range of 0.01-1000 nM with 2-fold serial dilution) were added, followed by incubation for 180 seconds. Then, 20 μL of 30 nM methacholine solution (HBSS containing 20 mM HEPES, 2.5 mM probenecid and 0.05% bovine serum albumin, BSA) was added, and fluorescence intensity was traced by the intracellular calcium influx measuring device FLIPR 96 (Molecular Devices, Inc.) for 170 seconds. The difference between the lowest and the highest values of the fluorescence intensity (FI) over the period of the measurement was used as a measured value. The percentages of inhibition by the test compounds were calculated according to the following formula from the measured value of the methacholin-added and test compound non-added sample (FIpositive), the measured value of the methacholin non-added and test compound non-added sample (FInegative), and the measured value of the methacholin-added and test compound-added sample (FItest). (%) Percentage of inhibition by test compound=[(1−(FItest−FInegative)/(FIpositive−FInegative)]×100
The 50% inhibitory concentrations (IC50 values) of test compounds were analyzed by a four-parameter logistic model using XLfit4 (IDBS, Ltd.) for the percentage of the inhibition by different concentrations of test compounds.

Molecules are shown by their SMILES. pEC50, pIC50: −log10 of the molar value. Where a name gives a salt, the structure may show the parent alone.

For orientation: pEC50 means the negative decadic logarithm of the EC50, by convention in mol/L. Lower therefore signals a large EC50. Usually pIC50 stands for −log10 of the IC50, conventionally taken in molar units.

T1 sequence (P07550 whole entry): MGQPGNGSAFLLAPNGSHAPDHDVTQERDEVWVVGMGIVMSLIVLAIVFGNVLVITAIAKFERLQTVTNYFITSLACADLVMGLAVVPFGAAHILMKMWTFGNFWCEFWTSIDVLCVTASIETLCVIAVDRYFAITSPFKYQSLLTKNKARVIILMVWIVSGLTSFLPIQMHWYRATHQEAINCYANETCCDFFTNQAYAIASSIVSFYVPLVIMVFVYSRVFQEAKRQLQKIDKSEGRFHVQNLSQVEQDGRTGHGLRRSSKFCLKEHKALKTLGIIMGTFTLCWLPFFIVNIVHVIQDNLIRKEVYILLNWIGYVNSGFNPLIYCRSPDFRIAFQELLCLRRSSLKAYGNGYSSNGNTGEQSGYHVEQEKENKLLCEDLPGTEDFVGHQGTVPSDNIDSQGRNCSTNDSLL

Regarding `Cc1cc(NC(=O)CCc2ccc(-c3ccccc3)c(NC(=O)OC3CC[N+](C)(C)CC3)c2)ccc1CNC[C@H](O)c1ccc(O)c2[nH]c(=O)ccc12` [Example 8, 4-({[5-(2-{[4-({[(2R)-2-hydroxy-2-(8-hydroxy-2-oxo-1,2-dihydroquinolin-5-yl)ethyl]amino}methyl)-3-methylphenyl]carbamoyl}ethyl)-2-phenylphenyl]carbamoyl}oxy)-1,1-dimethylpiperidin-1-ium trifluoroacetate], the pEC50 in test [1] is 8.29. In addition, the negative-log IC50 (pIC50) in test [2] was 7.87.
In test [1], `C[N+]1(C)CCC(OC(=O)Nc2cc(CCC(=O)Nc3ccc(CNC[C@H](O)c4ccc(O)c5[nH]c(=O)ccc45)c(Cl)c3)ccc2-c2ccccc2)CC1` [Example 3, 4-({[5-(2-{[3-chloro-4-({[(2R)-2-hydroxy-2-(8-hydroxy-2-oxo-1,2-dihydroquinolin-5-yl)ethyl]amino}methyl)phenyl]carbamoyl}ethyl)-2-phenylphenyl]carbamoyl}oxy)-1,1-dimethylpiperidin-1-ium trifluoroacetate] had a negative-log EC50 (pEC50) of 8.01. Further, the pIC50 in test [2] was 7.79.
The like results for `C[N+]1(C)CCC(OC(=O)Nc2cc(CCCC(=O)Nc3ccc(CNC[C@H](O)c4ccc(O)c5[nH]c(=O)ccc45)cc3F)ccc2-c2ccccc2)CC1` [Example 28, 4-({[5-(3-{[2-fluoro-4-({[(2R)-2-hydroxy-2-(8-hydroxy-2-oxo-1,2-dihydroquinolin-5-yl)ethyl]amino}methyl)phenyl]carbamoyl}propyl)-2-phenylphenyl]carbamoyl}oxy)-1,1-dimethylpiperidin-1-ium trifluoroacetate] were, in that order, 9.15 and 8.00.
The like results for `C[N+]1(C)CCC(OC(=O)Nc2cc(CCC(=O)Nc3ccc(CCNC[C@H](O)c4ccc(O)c5[nH]c(=O)ccc45)cc3)ccc2-c2ccccc2)CC1` [Example 63, 4-({[5-(2-{[4-(2-{[(2R)-2-hydroxy-2-(8-hydroxy-2-oxo-1,2-dihydroquinolin-5-yl)ethyl]amino}ethyl)phenyl]carbamoyl}ethyl)-2-phenylphenyl]carbamoyl}oxy)-1,1-dimethylpiperidin-1-ium trifluoroacetate] were, in that order, 8.25 and 7.38.
Molecule `C[N+]1(C)[C@@H]2CC(OC(=O)Nc3cc(CCCCC(=O)Nc4ccc(CNC[C@H](O)c5ccc(O)c6[nH]c(=O)ccc56)cc4)ccc3-c3ccccc3)C[C@H]1[C@@H]1O[C@@H]12` (stereo partly drawn) [Example 50, (1R,2R,4S,5S,7S)-7-({[5-(4-{[4-({[(2R)-2-hydroxy-2-(8-hydroxy-2-oxo-1,2-dihydroquinolin-5-yl)ethyl]amino}methyl)phenyl]carbamoyl}butyl)-2-phenylphenyl]carbamoyl}oxy)-9,9-dimethyl-3-oxa-9-azatricyclo[3.3.1.0^2,4]nonan-9-ium trifluoroacetate] had a negative-log EC50 (pEC50) in test [1] of 8.77. Also, the pIC50 in test [2] is 7.56.
In test [1], `C[N+]1(C)[C@@H]2C[C@@H](OC(=O)Nc3cc(CCCC(=O)Nc4ccc(CNC[C@H](O)c5ccc(O)c6[nH]c(=O)ccc56)cc4)ccc3-c3ccccc3)C[C@H]1[C@@H]1O[C@@H]12` [Example 33, (1R,2R,4S,5S,7S)-7-({[5-(3-{[4-({[(2R)-2-hydroxy-2-(8-hydroxy-2-oxo-1,2-dihydroquinolin-5-yl)ethyl]amino}methyl)phenyl]carbamoyl}propyl)-2-phenylphenyl]carbamoyl}oxy)-9,9-dimethyl-3-oxa-9-azatricyclo[3.3.1.0^2,4]nonan-9-ium trifluoroacetate] had a pEC50 of 8.34. Further, the pIC50 in test [2] was 7.66.
The corresponding values for `C[N+]1(C)CCC(OC(=O)Nc2cc(CCCC(=O)Nc3ccc(CNC[C@H](O)c4ccc(O)c5[nH]c(=O)ccc45)cc3)ccc2-c2ccccc2)CC1` [Example 32, 4-({[5-(3-{[4-({[(2R)-2-hydroxy-2-(8-hydroxy-2-oxo-1,2-dihydroquinolin-5-yl)ethyl]amino}methyl)phenyl]carbamoyl}propyl)-2-phenylphenyl]carbamoyl}oxy)-1,1-dimethylpiperidin-1-ium trifluoroacetate] are 8.08 and 7.79.
The like results for `C[N+]1(C)CCC(OC(=O)Nc2cc(CNC(=O)COc3ccc(CNC[C@H](O)c4ccc(O)c5[nH]c(=O)ccc45)cc3)ccc2-c2ccccc2)CC1` [Example 81, 4-({[5-({2-[4-({[(2R)-2-hydroxy-2-(8-hydroxy-2-oxo-1,2-dihydroquinolin-5-yl)ethyl]amino}methyl)phenoxy]acetamide}methyl)-2-phenylphenyl]carbamoyl}oxy)-1,1-dimethylpiperidin-1-ium trifluoroacetate] were, in that order, 8.06 and 7.60.
The corresponding values for `C[N+]1(C)CCC(OC(=O)Nc2ccc(CCCC(=O)Nc3ccc(CNC[C@H](O)c4ccc(O)c5[nH]c(=O)ccc45)cc3)cc2-c2ccccc2)CC1` [Example 54, 4-({[4-(3-{[4-({[(2R)-2-hydroxy-2-(8-hydroxy-2-oxo-1,2-dihydroquinolin-5-yl)ethyl]amino}methyl)phenyl]carbamoyl}propyl)-2-phenylphenyl]carbamoyl}oxy)-1,1-dimethylpiperidin-1-ium trifluoroacetate] are 9.05 and 7.68.
In test [1], `C[N+]1(C)CCC(OC(=O)Nc2cc(CCCOCCCCCNC[C@H](O)c3ccc(O)c4[nH]c(=O)ccc34)ccc2-c2ccccc2)CC1` [Example 78, 4-{[(5-{3-[(5-{[(2R)-2-hydroxy-2-(8-hydroxy-2-oxo-1,2-dihydroquinolin-5-yl)ethyl]amino}pentyl)oxy]propyl}-2-phenylphenyl)carbamoyl]oxy}-1,1-dimethylpiperidin-1-ium trifluoroacetate] gave a pEC50 of 8.89. Moreover, the pIC50 in test [2] is 7.13.
The like results for `C[N+]1(C)[C@@H]2CC(OC(=O)Nc3cc(CCC(=O)Nc4ccc(CCCNC[C@H](O)c5ccc(O)c6[nH]c(=O)ccc56)cc4)ccc3-c3ccccc3)C[C@H]1[C@@H]1O[C@@H]12` (stereo partly drawn) [Example 73, (1R,2R,4S,5S,7S)-7-({[5-(2-{[4-(3-{[(2R)-2-hydroxy-2-(8-hydroxy-2-oxo-1,2-dihydroquinolin-5-yl)ethyl]amino}propyl)phenyl]carbamoyl}ethyl)-2-phenylphenyl]carbamoyl}oxy)-9,9-dimethyl-3-oxa-9-azatricyclo[3.3.1.0^2,4]nonan-9-ium trifluoroacetate] were, in that order, 8.00 and 7.56.
In turn, `C[N+]1(C)CCC(OC(=O)Nc2cc(CCC(=O)Nc3ccc(CNC[C@H](O)c4ccc(O)c5[nH]c(=O)ccc45)cc3F)ccc2-c2ccccc2)CC1` [Example 4, 4-({[5-(2-{[2-fluoro-4-({[2R)-2-hydroxy-2-(8-hydroxy-2-oxo-1,2-dihydroquinolin-5-yl)ethyl]amino}methyl)phenyl]carbamoyl}ethyl)-2-phenylphenyl]carbamoyl}oxy)-1,1-dimethylpiperidin-1-ium trifluoroacetate] had a pEC50 in test [1] of 8.39. Further, the negative logarithm of the IC50 (pIC50) in test [2] is 8.31.

Values taken from patent US9072734B2, “Quaternary ammonium salt compounds” (Teijin Pharma Limited, priority 2009, dated 2015).
